# Measurements reported in PubChem BioAssay (NCI).
#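 The compound was tested at five concentrations on cells cultured in 96-well plates, with a 48-hour exposure period. TGI is the concentration that stops growth completely.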
# Tests used:
# Assay in all cases: growth of human tumour cells (NCI), 48 h
# 786-0 renal = test system: 786-0 renal
# A498 renal = test system: A498 renal
# A549 NSCLC = test system: A549 NSCLC
# ACHN renal = test system: ACHN renal
# CCRF-CEM leukemia = test system: CCRF-CEM leukemia
# COLO 205 colon = test system: COLO 205 colon
# DU-145 prostate = test system: DU-145 prostate
# EKVX NSCLC = test system: EKVX NSCLC
# HCT-116 colon = test system: HCT-116 colon
# HCT-15 colon = test system: HCT-15 colon
# HOP-62 NSCLC = test system: HOP-62 NSCLC
# HOP-92 NSCLC = test system: HOP-92 NSCLC
# HS 578T breast = test system: HS 578T breast
# HT29 colon = test system: HT29 colon
# IGROV1 ovarian = test system: IGROV1 ovarian
# K-562 leukemia = test system: K-562 leukemia
# KM12 colon = test system: KM12 colon
# LOX IMVI melanoma = test system: LOX IMVI melanoma
# M14 melanoma = test system: M14 melanoma
# MALME-3M melanoma = test system: MALME-3M melanoma
# MCF7 breast = test system: MCF7 breast
# MDA-MB-231 breast = test system: MDA-MB-231 breast
# MDA-MB-435 = test system: MDA-MB-435
# MDA-N = test system: MDA-N
# MOLT-4 leukemia = test system: MOLT-4 leukemia
# NCI-H226 lung = test system: NCI-H226 lung
# NCI-H23 lung = test system: NCI-H23 lung
# NCI/ADR-RES ovarian = test system: NCI/ADR-RES ovarian
# OVCAR-3 ovarian = test system: OVCAR-3 ovarian
# OVCAR-4 ovarian = test system: OVCAR-4 ovarian
# OVCAR-5 ovarian = test system: OVCAR-5 ovarian
# OVCAR-8 ovarian = test system: OVCAR-8 ovarian
# PC-3 prostate = test system: PC-3 prostate
# RPMI-8226 leukemia = test system: RPMI-8226 leukemia
# SF-268 CNS = test system: SF-268 CNS
# SF-295 CNS = test system: SF-295 CNS
# SK-MEL-2 melanoma = test system: SK-MEL-2 melanoma
# SK-MEL-28 melanoma = test system: SK-MEL-28 melanoma
# SK-MEL-5 melanoma = test system: SK-MEL-5 melanoma
# SK-OV-3 ovarian = test system: SK-OV-3 ovarian
# SN12C renal = test system: SN12C renal
# SNB-19 CNS = test system: SNB-19 CNS
# SNB-75 CNS = test system: SNB-75 CNS
# SR leukemia = test system: SR leukemia
# SW-620 colon = test system: SW-620 colon
# TK-10 renal = test system: TK-10 renal
# U251 CNS = test system: U251 CNS
# UACC-257 melanoma = test system: UACC-257 melanoma
# UACC-62 melanoma = test system: UACC-62 melanoma
# UO-31 renal = test system: UO-31 renal
# BT-549 breast = test system: BT-549 breast
# CAKI-1 renal = test system: CAKI-1 renal
# HCC-2998 colon = test system: HCC-2998 colon
# HL-60(TB) leukemia = test system: HL-60(TB) leukemia
# NCI-H460 lung = test system: NCI-H460 lung
# NCI-H522 lung = test system: NCI-H522 lung
# SF-539 CNS = test system: SF-539 CNS
# T-47D breast = test system: T-47D breast
smiles,measurement,setting,value
CCOC(=O)Cc1c(C)c2ccc(OC(C)=O)c(OC(C)=O)c2oc1=O,TGI,786-0 renal,> 100 µM
same,TGI,A498 renal,> 100 µM
same,TGI,A549 NSCLC,> 100 µM
same,TGI,ACHN renal,> 100 µM
same,TGI,CCRF-CEM leukemia,28.5 µM
same,TGI,COLO 205 colon,> 100 µM
same,TGI,DU-145 prostate,> 100 µM
same,TGI,EKVX NSCLC,> 100 µM
same,TGI,HCT-116 colon,> 100 µM
same,TGI,HCT-15 colon,> 100 µM
same,TGI,HOP-62 NSCLC,> 100 µM
same,TGI,HOP-92 NSCLC,71.3 µM
same,TGI,HS 578T breast,> 100 µM
same,TGI,HT29 colon,91.3 µM
same,TGI,IGROV1 ovarian,44.3 µM
same,TGI,K-562 leukemia,71.9 µM
same,TGI,KM12 colon,> 100 µM
same,TGI,LOX IMVI melanoma,73.9 µM
same,TGI,M14 melanoma,> 100 µM
same,TGI,MALME-3M melanoma,> 100 µM
same,TGI,MCF7 breast,77.1 µM
same,TGI,MDA-MB-231 breast,> 100 µM
same,TGI,MDA-MB-435,> 100 µM
same,TGI,MDA-N,> 100 µM
same,TGI,MOLT-4 leukemia,> 100 µM
same,TGI,NCI-H226 lung,94.3 µM
same,TGI,NCI-H23 lung,71.7 µM
same,TGI,NCI/ADR-RES ovarian,58.4 µM
same,TGI,OVCAR-3 ovarian,> 100 µM
same,TGI,OVCAR-4 ovarian,64 µM
same,TGI,OVCAR-5 ovarian,> 100 µM
same,TGI,OVCAR-8 ovarian,57.3 µM
same,TGI,PC-3 prostate,> 100 µM
same,TGI,RPMI-8226 leukemia,> 100 µM
same,TGI,SF-268 CNS,96.1 µM
same,TGI,SF-295 CNS,> 100 µM
same,TGI,SK-MEL-2 melanoma,> 100 µM
same,TGI,SK-MEL-28 melanoma,> 100 µM
same,TGI,SK-MEL-5 melanoma,> 100 µM
same,TGI,SK-OV-3 ovarian,> 100 µM
same,TGI,SN12C renal,> 100 µM
same,TGI,SNB-19 CNS,> 100 µM
same,TGI,SNB-75 CNS,88.6 µM
same,TGI,SR leukemia,64.4 µM
same,TGI,SW-620 colon,> 100 µM
same,TGI,TK-10 renal,65.2 µM
same,TGI,U251 CNS,> 100 µM
same,TGI,UACC-257 melanoma,51.1 µM
same,TGI,UACC-62 melanoma,90 µM
same,TGI,UO-31 renal,55.8 µM
Cc1ccc(Nc2c3c(c(C#N)c4nc5ccccc5n24)CCCC3)cc1,TGI,786-0 renal,> 100 µM
same,TGI,A549 NSCLC,> 100 µM
same,TGI,ACHN renal,> 100 µM
same,TGI,BT-549 breast,> 100 µM
same,TGI,CAKI-1 renal,> 100 µM
same,TGI,CCRF-CEM leukemia,31.6 µM
same,TGI,COLO 205 colon,50.6 µM
same,TGI,DU-145 prostate,> 100 µM
same,TGI,EKVX NSCLC,> 100 µM
same,TGI,HCC-2998 colon,94.9 µM
same,TGI,HCT-116 colon,36.8 µM
same,TGI,HCT-15 colon,82.4 µM
same,TGI,HL-60(TB) leukemia,25.5 µM
same,TGI,HOP-92 NSCLC,76.2 µM
same,TGI,HS 578T breast,> 100 µM
same,TGI,HT29 colon,37.2 µM
same,TGI,IGROV1 ovarian,> 100 µM
same,TGI,K-562 leukemia,> 100 µM
same,TGI,KM12 colon,> 100 µM
same,TGI,LOX IMVI melanoma,> 100 µM
same,TGI,M14 melanoma,74.4 µM
same,TGI,MALME-3M melanoma,77.9 µM
same,TGI,MCF7 breast,> 100 µM
same,TGI,MDA-MB-231 breast,62.4 µM
same,TGI,MDA-MB-435,45.8 µM
same,TGI,MDA-N,> 100 µM
same,TGI,MOLT-4 leukemia,40.6 µM
same,TGI,NCI-H226 lung,62 µM
same,TGI,NCI-H23 lung,> 100 µM
same,TGI,NCI-H460 lung,> 100 µM
same,TGI,NCI-H522 lung,82.4 µM
same,TGI,NCI/ADR-RES ovarian,61.9 µM
same,TGI,OVCAR-3 ovarian,34.6 µM
same,TGI,OVCAR-4 ovarian,> 100 µM
same,TGI,OVCAR-5 ovarian,95 µM
same,TGI,OVCAR-8 ovarian,> 100 µM
same,TGI,PC-3 prostate,87.2 µM
same,TGI,SF-268 CNS,> 100 µM
same,TGI,SF-295 CNS,44.1 µM
same,TGI,SF-539 CNS,43.4 µM
same,TGI,SK-MEL-2 melanoma,31.7 µM
same,TGI,SK-MEL-28 melanoma,55.6 µM
same,TGI,SK-MEL-5 melanoma,23.4 µM
same,TGI,SK-OV-3 ovarian,> 100 µM
same,TGI,SN12C renal,31.7 µM
same,TGI,SNB-19 CNS,> 100 µM
same,TGI,SW-620 colon,61 µM
same,TGI,T-47D breast,> 100 µM
same,TGI,TK-10 renal,> 100 µM
same,TGI,U251 CNS,> 100 µM
same,TGI,UACC-257 melanoma,55 µM
same,TGI,UACC-62 melanoma,71.2 µM
same,TGI,UO-31 renal,65.6 µM
C/C=C1/CN2CCC34C(=C(C(=O)OC)C1CC23)Nc1ccc(O)cc14 (stereo not drawn),TGI,786-0 renal,> 100 µM
same,TGI,A498 renal,> 100 µM
same,TGI,A549 NSCLC,> 100 µM
same,TGI,ACHN renal,> 100 µM
same,TGI,BT-549 breast,> 100 µM
same,TGI,CAKI-1 renal,> 100 µM
same,TGI,CCRF-CEM leukemia,> 100 µM
same,TGI,COLO 205 colon,> 100 µM
same,TGI,DU-145 prostate,> 100 µM
same,TGI,EKVX NSCLC,> 100 µM
same,TGI,HCC-2998 colon,> 100 µM
same,TGI,HCT-116 colon,> 100 µM
same,TGI,HCT-15 colon,> 100 µM
same,TGI,HL-60(TB) leukemia,> 100 µM
same,TGI,HOP-92 NSCLC,> 100 µM
same,TGI,HS 578T breast,> 100 µM
same,TGI,HT29 colon,> 100 µM
same,TGI,IGROV1 ovarian,> 100 µM
same,TGI,KM12 colon,> 100 µM
same,TGI,LOX IMVI melanoma,> 100 µM
same,TGI,M14 melanoma,> 100 µM
same,TGI,MALME-3M melanoma,> 100 µM
same,TGI,MCF7 breast,> 100 µM
same,TGI,MDA-MB-231 breast,> 100 µM
same,TGI,MDA-MB-435,> 100 µM
same,TGI,MDA-N,> 100 µM
same,TGI,MOLT-4 leukemia,> 100 µM
same,TGI,NCI-H226 lung,> 100 µM
same,TGI,NCI-H23 lung,> 100 µM
same,TGI,NCI-H460 lung,> 100 µM
same,TGI,NCI-H522 lung,> 100 µM
same,TGI,NCI/ADR-RES ovarian,> 100 µM
same,TGI,OVCAR-3 ovarian,> 100 µM
same,TGI,OVCAR-4 ovarian,> 100 µM
same,TGI,OVCAR-5 ovarian,> 100 µM
same,TGI,OVCAR-8 ovarian,> 100 µM
same,TGI,PC-3 prostate,> 100 µM
same,TGI,RPMI-8226 leukemia,> 100 µM
same,TGI,SF-268 CNS,> 100 µM
same,TGI,SF-295 CNS,> 100 µM
same,TGI,SF-539 CNS,> 100 µM
same,TGI,SK-MEL-2 melanoma,> 100 µM
same,TGI,SK-MEL-28 melanoma,> 100 µM
same,TGI,SK-MEL-5 melanoma,> 100 µM
same,TGI,SK-OV-3 ovarian,> 100 µM
same,TGI,SN12C renal,> 100 µM
same,TGI,SNB-19 CNS,> 100 µM
same,TGI,SNB-75 CNS,> 100 µM
same,TGI,SW-620 colon,> 100 µM
same,TGI,T-47D breast,> 100 µM
same,TGI,TK-10 renal,> 100 µM
same,TGI,U251 CNS,> 100 µM
same,TGI,UACC-257 melanoma,> 100 µM
same,TGI,UACC-62 melanoma,> 100 µM
same,TGI,UO-31 renal,> 100 µM
